Laboratory results from PubChem BioAssay (NCI).
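These data come from cells grown in 96-well plates and exposed to compound for 48 hours at five concentrations. TGI: total growth inhibition.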

Assays:
Assay in all cases: NCI anticancer screen, dose series, 48 h
[1] = system: 786-0 renal
[2] = system: A498 renal
[3] = system: A549 NSCLC
[4] = system: ACHN renal
[5] = system: CCRF-CEM leukemia
[6] = system: COLO 205 colon
[7] = system: DLD-1 colon
[8] = system: DMS 114 small cell lung
[9] = system: DMS 273 small cell lung
[10] = system: EKVX NSCLC
[11] = system: HCC-2998 colon
[12] = system: HCT-116 colon
[13] = system: HCT-15 colon
[14] = system: HL-60(TB) leukemia
[15] = system: HOP-62 NSCLC
[16] = system: HOP-92 NSCLC
[17] = system: HT29 colon
[18] = system: IGROV1 ovarian
[19] = system: K-562 leukemia
[20] = system: KM12 colon
[21] = system: KM20L2 colon
[22] = system: LOX IMVI melanoma
[23] = system: LXFL 529 NSCLC
[24] = system: M14 melanoma
[25] = system: M19-MEL melanoma
[26] = system: MALME-3M melanoma
[27] = system: MOLT-4 leukemia
[28] = system: NCI-H226 lung
[29] = system: NCI-H23 lung
[30] = system: NCI-H460 lung
[31] = system: OVCAR-3 ovarian
[32] = system: OVCAR-4 ovarian
[33] = system: OVCAR-5 ovarian
[34] = system: OVCAR-8 ovarian
[35] = system: RPMI-8226 leukemia
[36] = system: RXF 393 renal
[37] = system: SF-268 CNS
[38] = system: SF-295 CNS
[39] = system: SF-539 CNS
[40] = system: SK-MEL-2 melanoma
[41] = system: SK-MEL-28 melanoma
[42] = system: SK-MEL-5 melanoma
[43] = system: SK-OV-3 ovarian
[44] = system: SN12C renal
[45] = system: SNB-19 CNS
[46] = system: SNB-75 CNS
[47] = system: SNB-78 CNS
[48] = system: SW-620 colon
[49] = system: TK-10 renal
[50] = system: U251 CNS
[51] = system: UACC-257 melanoma
[52] = system: UACC-62 melanoma
[53] = system: UO-31 renal
[54] = system: XF 498 CNS
[55] = system: NCI-H522 lung

SMILES: CCOC(=O)C(C(=O)OCC)=C1C=C(c2ccccc2)c2ccccc21
- TGI [1]: > 100 µM
- TGI [2]: 62.9 µM
- TGI [3]: > 100 µM
- TGI [4]: > 100 µM
- TGI [5]: > 100 µM
- TGI [6]: > 100 µM
- TGI [7]: > 100 µM
- TGI [8]: > 100 µM
- TGI [9]: > 100 µM
- TGI [10]: > 100 µM
- TGI [11]: > 100 µM
- TGI [12]: > 100 µM
- TGI [13]: > 100 µM
- TGI [14]: 92 µM
- TGI [15]: > 100 µM
- TGI [16]: 46.8 µM
- TGI [17]: > 100 µM
- TGI [18]: > 100 µM
- TGI [19]: > 100 µM
- TGI [20]: > 100 µM
- TGI [21]: > 100 µM
- TGI [22]: > 100 µM
- TGI [23]: > 100 µM
- TGI [24]: > 100 µM
- TGI [25]: > 100 µM
- TGI [26]: > 100 µM
- TGI [27]: > 100 µM
- TGI [28]: > 100 µM
- TGI [29]: > 100 µM
- TGI [30]: > 100 µM
- TGI [31]: > 100 µM
- TGI [32]: > 100 µM
- TGI [33]: > 100 µM
- TGI [34]: > 100 µM
- TGI [35]: 89.4 µM
- TGI [36]: > 100 µM
- TGI [37]: > 100 µM
- TGI [38]: > 100 µM
- TGI [39]: > 100 µM
- TGI [40]: > 100 µM
- TGI [41]: > 100 µM
- TGI [42]: > 100 µM
- TGI [43]: > 100 µM
- TGI [44]: > 100 µM
- TGI [45]: > 100 µM
- TGI [46]: > 100 µM
- TGI [47]: > 100 µM
- TGI [48]: > 100 µM
- TGI [49]: > 100 µM
- TGI [50]: > 100 µM
- TGI [51]: > 100 µM
- TGI [52]: > 100 µM
- TGI [53]: > 100 µM
- TGI [54]: > 100 µM

SMILES: C#CN1C(=O)c2c(c(-c3ccccc3)c(-c3ccc(Oc4ccc(-c5c(-c6ccccc6)c6c(c(-c7ccccc7)c5-c5ccccc5)C(=O)N(C#C)C6=O)cc4)cc3)c(-c3ccccc3)c2-c2ccccc2)C1=O
- TGI [1]: > 100 µM
- TGI [3]: > 100 µM
- TGI [4]: > 100 µM
- TGI [5]: > 100 µM
- TGI [6]: > 100 µM
- TGI [7]: > 100 µM
- TGI [8]: > 100 µM
- TGI [9]: > 100 µM
- TGI [10]: > 100 µM
- TGI [11]: > 100 µM
- TGI [12]: > 100 µM
- TGI [13]: > 100 µM
- TGI [14]: > 100 µM
- TGI [15]: > 100 µM
- TGI [16]: > 100 µM
- TGI [17]: > 100 µM
- TGI [18]: > 100 µM
- TGI [19]: > 100 µM
- TGI [20]: > 100 µM
- TGI [21]: > 100 µM
- TGI [22]: > 100 µM
- TGI [24]: > 100 µM
- TGI [25]: > 100 µM
- TGI [26]: > 100 µM
- TGI [27]: > 100 µM
- TGI [29]: > 100 µM
- TGI [30]: > 100 µM
- TGI [55]: > 100 µM
- TGI [31]: > 100 µM
- TGI [32]: > 100 µM
- TGI [33]: > 100 µM
- TGI [34]: > 100 µM
- TGI [35]: > 100 µM
- TGI [36]: > 100 µM
- TGI [37]: > 100 µM
- TGI [38]: > 100 µM
- TGI [39]: > 100 µM
- TGI [40]: > 100 µM
- TGI [41]: > 100 µM
- TGI [42]: > 100 µM
- TGI [44]: > 100 µM
- TGI [45]: > 100 µM
- TGI [46]: > 100 µM
- TGI [48]: > 100 µM
- TGI [49]: > 100 µM
- TGI [50]: > 100 µM
- TGI [51]: > 100 µM
- TGI [52]: > 100 µM
- TGI [53]: > 100 µM
- TGI [54]: 72.8 µM
